{"source": "PubChem BioAssay (NCI)", "experiment_in_all_cases": "growth of human tumour cells (NCI), 384-well format", "key": {"NCI-H226 lung": {"test_system": "NCI-H226 lung"}, "NCI-H23 lung": {"test_system": "NCI-H23 lung"}, "NCI-H322M lung": {"test_system": "NCI-H322M lung"}, "NCI-H460 NSCLC": {"test_system": "NCI-H460 NSCLC"}, "NCI-H522 lung": {"test_system": "NCI-H522 lung"}, "NCI/ADR-RES ovarian": {"test_system": "NCI/ADR-RES ovarian"}, "OVCAR-3 ovarian": {"test_system": "OVCAR-3 ovarian"}, "OVCAR-4 ovarian": {"test_system": "OVCAR-4 ovarian"}, "OVCAR-5 ovarian": {"test_system": "OVCAR-5 ovarian"}, "OVCAR-8 ovarian": {"test_system": "OVCAR-8 ovarian"}, "PC-3 prostate": {"test_system": "PC-3 prostate"}, "RPMI-8226 leukemia": {"test_system": "RPMI-8226 leukemia"}, "RXF 393 renal": {"test_system": "RXF 393 renal"}, "SF-268 CNS": {"test_system": "SF-268 CNS"}, "SF-295 CNS": {"test_system": "SF-295 CNS"}, "SF-539 CNS": {"test_system": "SF-539 CNS"}, "SK-MEL-2 melanoma": {"test_system": "SK-MEL-2 melanoma"}, "SK-MEL-28 melanoma": {"test_system": "SK-MEL-28 melanoma"}, "SK-MEL-5 melanoma": {"test_system": "SK-MEL-5 melanoma"}, "SK-OV-3 ovarian": {"test_system": "SK-OV-3 ovarian"}, "SN12C renal": {"test_system": "SN12C renal"}, "SNB-19 CNS": {"test_system": "SNB-19 CNS"}, "SNB-75 CNS": {"test_system": "SNB-75 CNS"}, "SW-620 colon": {"test_system": "SW-620 colon"}, "T-47D breast": {"test_system": "T-47D breast"}, "TK-10 renal": {"test_system": "TK-10 renal"}, "U251 glioblastoma": {"test_system": "U251 glioblastoma"}, "UACC-257 melanoma": {"test_system": "UACC-257 melanoma"}, "UACC-62 melanoma": {"test_system": "UACC-62 melanoma"}, "UO-31 renal": {"test_system": "UO-31 renal"}}, "note": "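The concentration for 50% growth inhibition is given as GI50. The concentration for full growth arrest is given as TGI.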"}
{"smiles": "Cc1cc(C(=O)Nc2nc3cccc(Cl)c3n2[C@@H]2CCCCN(C(=O)/C=C/CN(C)C)C2)ccn1", "values": [{"measurement": "TGI", "setting": "NCI-H226 lung", "value": 15.9, "unit": "µM"}, {"measurement": "GI50", "setting": "NCI-H23 lung", "value": 2.83, "unit": "µM"}, {"measurement": "TGI", "setting": "NCI-H23 lung", "value": 10.5, "unit": "µM"}, {"measurement": "GI50", "setting": "NCI-H322M lung", "value": 0.367, "unit": "µM"}, {"measurement": "TGI", "setting": "NCI-H322M lung", "value": 10.1, "unit": "µM"}, {"measurement": "GI50", "setting": "NCI-H460 NSCLC", "value": 2.99, "unit": "µM"}, {"measurement": "TGI", "setting": "NCI-H460 NSCLC", "value": 10.6, "unit": "µM"}, {"measurement": "GI50", "setting": "NCI-H522 lung", "value": 0.12, "unit": "µM"}, {"measurement": "TGI", "setting": "NCI-H522 lung", "value": 2.07, "unit": "µM"}, {"measurement": "GI50", "setting": "NCI/ADR-RES ovarian", "value": 2.3, "unit": "µM"}, {"measurement": "TGI", "setting": "NCI/ADR-RES ovarian", "value": 9.63, "unit": "µM"}, {"measurement": "GI50", "setting": "OVCAR-3 ovarian", "value": 1.46, "unit": "µM"}, {"measurement": "TGI", "setting": "OVCAR-3 ovarian", "value": 4.15, "unit": "µM"}, {"measurement": "GI50", "setting": "OVCAR-4 ovarian", "value": 3.56, "unit": "µM"}, {"measurement": "TGI", "setting": "OVCAR-4 ovarian", "value": 14.7, "unit": "µM"}, {"measurement": "GI50", "setting": "OVCAR-5 ovarian", "value": 3.08, "unit": "µM"}, {"measurement": "TGI", "setting": "OVCAR-5 ovarian", "value": 14.2, "unit": "µM"}, {"measurement": "GI50", "setting": "OVCAR-8 ovarian", "value": 3.15, "unit": "µM"}, {"measurement": "TGI", "setting": "OVCAR-8 ovarian", "value": 13.7, "unit": "µM"}, {"measurement": "GI50", "setting": "PC-3 prostate", "value": 3.45, "unit": "µM"}, {"measurement": "TGI", "setting": "PC-3 prostate", "value": 14.3, "unit": "µM"}, {"measurement": "GI50", "setting": "RPMI-8226 leukemia", "value": 1.4, "unit": "µM"}, {"measurement": "TGI", "setting": "RPMI-8226 leukemia", "value": 3.77, "unit": "µM"}, {"measurement": "GI50", "setting": "RXF 393 renal", "value": 4.04, "unit": "µM"}, {"measurement": "TGI", "setting": "RXF 393 renal", "value": 15.3, "unit": "µM"}, {"measurement": "GI50", "setting": "SF-268 CNS", "value": 3.02, "unit": "µM"}, {"measurement": "TGI", "setting": "SF-268 CNS", "value": 14, "unit": "µM"}, {"measurement": "GI50", "setting": "SF-295 CNS", "value": 4.09, "unit": "µM"}, {"measurement": "TGI", "setting": "SF-295 CNS", "value": 14.5, "unit": "µM"}, {"measurement": "GI50", "setting": "SF-539 CNS", "value": 3.23, "unit": "µM"}, {"measurement": "TGI", "setting": "SF-539 CNS", "value": 11, "unit": "µM"}, {"measurement": "GI50", "setting": "SK-MEL-2 melanoma", "value": 2.43, "unit": "µM"}, {"measurement": "TGI", "setting": "SK-MEL-2 melanoma", "value": 7.52, "unit": "µM"}, {"measurement": "GI50", "setting": "SK-MEL-28 melanoma", "value": 7.02, "unit": "µM"}, {"measurement": "TGI", "setting": "SK-MEL-28 melanoma", "value": 20.1, "unit": "µM"}, {"measurement": "GI50", "setting": "SK-MEL-5 melanoma", "value": 1.71, "unit": "µM"}, {"measurement": "TGI", "setting": "SK-MEL-5 melanoma", "value": 4.83, "unit": "µM"}, {"measurement": "GI50", "setting": "SK-OV-3 ovarian", "value": 0.928, "unit": "µM"}, {"measurement": "TGI", "setting": "SK-OV-3 ovarian", "value": 10.2, "unit": "µM"}, {"measurement": "GI50", "setting": "SN12C renal", "value": 1.79, "unit": "µM"}, {"measurement": "TGI", "setting": "SN12C renal", "value": 13.9, "unit": "µM"}, {"measurement": "GI50", "setting": "SNB-19 CNS", "value": 3.49, "unit": "µM"}, {"measurement": "TGI", "setting": "SNB-19 CNS", "value": 14.9, "unit": "µM"}, {"measurement": "GI50", "setting": "SNB-75 CNS", "value": 5.5, "unit": "µM"}, {"measurement": "TGI", "setting": "SNB-75 CNS", "value": 17.9, "unit": "µM"}, {"measurement": "GI50", "setting": "SW-620 colon", "value": 2.93, "unit": "µM"}, {"measurement": "TGI", "setting": "SW-620 colon", "value": 8.65, "unit": "µM"}, {"measurement": "GI50", "setting": "T-47D breast", "value": 2.65, "unit": "µM"}, {"measurement": "TGI", "setting": "T-47D breast", "value": 17.3, "unit": "µM"}, {"measurement": "GI50", "setting": "TK-10 renal", "value": 0.494, "unit": "µM"}, {"measurement": "TGI", "setting": "TK-10 renal", "value": 7.41, "unit": "µM"}, {"measurement": "GI50", "setting": "U251 glioblastoma", "value": 2.61, "unit": "µM"}, {"measurement": "TGI", "setting": "U251 glioblastoma", "value": 8.17, "unit": "µM"}, {"measurement": "GI50", "setting": "UACC-257 melanoma", "value": 2.56, "unit": "µM"}, {"measurement": "TGI", "setting": "UACC-257 melanoma", "value": 8.75, "unit": "µM"}, {"measurement": "GI50", "setting": "UACC-62 melanoma", "value": 3.62, "unit": "µM"}, {"measurement": "TGI", "setting": "UACC-62 melanoma", "value": 14.1, "unit": "µM"}, {"measurement": "GI50", "setting": "UO-31 renal", "value": 2.05, "unit": "µM"}, {"measurement": "TGI", "setting": "UO-31 renal", "value": 12.9, "unit": "µM"}]}
